Consider one compound from patent EP2433948A1, “Use of a new class of nucleotide sugar as antibiotic or cytostatic agent” (Max-Planck-Gesellschaft zur Förderung der Wissenschaften …, priority 2010, dated 2012).

The target of this assay is E. coli MurA (Escherichia coli, UniProt P0A749). In words: MurA activity/inhibition assay (phosphate release coupled to PNPase cleavage of fluorescent 7-methylguanosine). Format: biochemical. An excerpt:
• (a) MurA performs the first step of UDP-muramic acid biosynthesis. After sequential binding of UNAG and phosphoenolpyruvate, a tetrahedral intermediate is formed that yields enolpyruvyl-UNAG after cleavage of inorganic phosphate. UNAG-3P most likely mimics this tetrahedral intermediate and thereby inhibits MurA catalysis by a competitive binding mechanism. (b) Determination of the Ki of UNAG-3P for MurA. Enolpyruvyl-UNAG formation catalyzed by MurA from E. coli in presence of PEP and UNAG-3P and varying UNAG concentrations under steady state conditions. MurA enzyme kinetics were followed by coupling the reaction to phosphate dependent cleavage of fluorescent 7-methylguanosine by nucleoside phosphorylase resulting in a strong decrease of the fluorescence at 400 nm (λexc = 300 nm). The UNAG-3P concentrations for each saturation curve were 0 µM (●), 15 µM (□) and 30 µM (Δ). A Lineweaver-Burk plot is shown as inset.
The enolpyruvyl activity of E. coli MurA was monitored by coupling phosphate release to cleavage of fluorescent 7-methylguanosine (Sigma) by bacterial purine-nucleoside phosphorylase (PNPase) (Sigma). […] The reactions were monitored by the decrease in fluorescence at 400 nm with excitation set to 300 nm in a FluoroMax-3 spectrofluorometer (HORIBA Jobin Yvon) with excitation and emission bandwidths of 5 nm. […]

Sequence of E. coli MurA (P0A749 whole entry): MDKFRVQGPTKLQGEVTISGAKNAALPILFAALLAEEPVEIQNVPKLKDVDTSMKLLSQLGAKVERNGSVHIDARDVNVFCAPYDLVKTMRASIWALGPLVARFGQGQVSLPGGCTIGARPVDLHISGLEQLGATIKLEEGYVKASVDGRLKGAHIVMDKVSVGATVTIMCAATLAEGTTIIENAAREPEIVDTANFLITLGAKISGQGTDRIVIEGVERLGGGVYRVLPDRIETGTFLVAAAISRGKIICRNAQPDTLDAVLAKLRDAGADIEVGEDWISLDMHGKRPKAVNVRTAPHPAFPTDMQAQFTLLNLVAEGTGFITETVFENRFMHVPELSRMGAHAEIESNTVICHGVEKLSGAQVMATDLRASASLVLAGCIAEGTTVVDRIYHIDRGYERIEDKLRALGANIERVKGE

Turning to `CC(=O)N[C@H]1[C@@H](OP(=O)(O)OP(=O)(O)OC[C@H]2O[C@@H](n3ccc(=O)[nH]c3=O)[C@H](O)[C@@H]2O)O[C@H](CO)[C@@H](O)[C@@H]1OP(=O)(O)O` [UNAG-3P, Uridinediphosphate-2-N-acetyl-3-phosphate-glucosamine], the Ki was 7 µM.

Usually Ki stands for a measure of affinity in units of concentration, obtained from inhibition or displacement.
